# Measured values from patent US20190255042A1, “APPLICATION OF HEDGEHOG PATHWAY INHIBITOR IN TREATING FIBROSIS DISEASES” (IMPACT THERAPEUTICS, INC, priority 2016, published 2019).
# How the values were obtained:
# [1] = system: unilateral pulmonary fibrosis model in SD rats; assay: Prophylactic therapeutic efficacy in unilateral pulmonary fibrosis model in SD rats (bleomycin); type: in vivo; parameters: key to Fibrosis score (Ashcraft): Ashcraft semi-quantitative fibrosis score; Evaluation of injury and inflammatory lesions of left lung: Fibrotic lesion edge / Evaluation of injury and inflammatory lesions of left lung: Fibrosis lesion: scale not given here
# Experimental: 40 male SD rats were randomized into Model group (Group 1, n=8), positive drug group BIBF1120 60 mg/kg/d group (Group 2, n=8), Compound A 5 mg/kg/d group (Group 3, n=8), compound A 10 mg/kg/d group (Group 4, n=8) and Compound A 20 mg/kg/d (Group 5, n=8). On the modeling day, rats were anesthetized and exposed to trachea. Bleomycin was injected into trachea of each group (dosage: 3 mg/kg, volume: 1.0 ml/kg). Oral administration was performed 2 hours after modeling, once a day. On Day 15, all the animals were killed, the left lung was taken, the weight and volume of the left lung were measured, then fixed by formalin, the bronchioles were stained with HE, Masson trichrome. The bronchioles, final bronchiole and small pulmonary artery injury and inflammation invasion were evaluated by semi-quantitative score, and pulmonary fibrosis was evaluated by Ashcraft semi-quantitative score.
# [2] = system: unilateral pulmonary fibrosis model in SD rats; assay: Therapeutic efficacy in unilateral pulmonary fibrosis model in SD rats (bleomycin, dosing from D8); type: in vivo; parameters: Evaluation of injury and inflammatory lesions of left lung: Fibrotic lesion edge / Evaluation of injury and inflammatory lesions of left lung: Fibrosis lesion: scale not given here; conditions: for Expression of Type I collagen (%) / Expression of α-SMA protein (%): left lung immunohistochemistry; for Evaluation of injury and inflammatory lesions of left lung: Fibrosis lesion / Evaluation of injury and inflammatory lesions of left lung: Fibrotic lesion edge: HE score; for Fibrosis area (left pulmonary): Masson trichrome
# Experimental: On the modeling day, rats were anesthetized and exposed to trachea. Bleomycin was injected into left trachea of each group (dosage: 3 mg/kg, volume: 1.0 ml/kg). Oral administration was performed on Day 8 after modeling, once a day. On Day 22, according to the KCI animal euthanasia SOP, animals in each group were given an overdose of sodium barbiturate and sacrificed under intraperitoneal anesthesia, the left lung was taken, the weight and volume of the left lung were measured, then fixed by formalin, the bronchioles were stained with HE, Masson trichrome. The bronchioles, final bronchiole and small pulmonary artery injury and inflammation invasion were evaluated by semi-quantitative score, and pulmonary fibrosis was evaluated by Ashcraft semi-quantitative score. Immunohistochemical staining of α-SMA, Type I collagen (Collagen-I) were performed at the same time, a full scan was performed by Hamamatsu NanoZoomer Digital Pathology (S210), the α-SMA positive area was semiquantitatively calculated from the unit area of the whole sheelt in pulmonary fibrosis foci, and the positive staining area of type-I collagent per unit of area was calculated.
# [3] = system: lung fibrosis model in mice induced by bleomycin; assay: Therapeutic efficacy in lung fibrosis model in mice induced by bleomycin; type: in vivo, C57BL/6 mice; conditions: n = 10, Mean ± Sem
# Experimental: Experimental Methods: 60 male C57BL/6 mice were randomize into 6 groups: Blank control group (Group 1, n=10), model group (Group 2, BLM, n=10), Compound A 10 mpk group (Group 3, n=10), compound A 20 mpk group (Group 4, n=10), Compound A 20 mpk +BIBF1120 50 mpk (Group 5, n=10), and BIBF1120 50 mpk positive reference group (Group 6, n=10). One week after the mice were acclimated to the environment, 10 mice in the blank control group were given 50 μl of normal saline in the trachea, and other 50 mice were given 50 μl BLM (0.66 mg/kg, 2 ml/kg) in the trachea. After BLM infusion, 50 mice in BLM infusion group were randomly assigned to start treatment on the 5th day, once a day, with a treatment cycle of 20 days. The whole process was 25 days. After the experiment, the lung tissues were fixed in 10% neutral formalin, dehydrated by alcohol gradient, embedded with paraffin, stained by hematoxylin-eosin (H&E) and Masson trichrome staining. And the inflammatory area and degree of fibrosis of the lung tissues in mice were evaluated by APERIO ScanScope. Immunohistochemical staining of lung tissue was performed to quantify α-SMA positive fibroblasts in lung tissue and to calculate the percentage (%) of α-SMA staining in the entire lung stroma.
# [4] = system: foodborne non-alcoholic fatty hepatitis (NASH) model in mice; conditions: Hirsova et al., Plos One 2013; cited from earlier work
# [5] = system: bleomycin-induced lung injury in a mouse model; conditions: Moshai et al., 2014; cited from earlier work
# [6] = 60 mg/kg/d oral from modeling day, D15, HE score, mean ± sem, n = 8
# [7] = 60 mg/kg/d oral from modeling day, D15, mean ± sem, n = 8
# [8] = 100 mpk oral D8 to D22, mean ± sem, n = 6
# [9] = 100 mpk oral D8 to D22 after modeling, mean ± sem
# [10] = 50 mpk oral D8 to D22, mean ± sem, n = 8
# [11] = 50 mpk oral D8 to D22 after modeling, mean ± sem
smiles,measurement,setting,value
"COC(=O)c1ccc2c(c1)NC(=O)/C2=C(\Nc1ccc(N(C)C(=O)CN2CCN(C)CC2)cc1)c1ccccc1 [BIBF1120, Nintedanib ethylsulfonate, reference compound]",Evaluation of injury and inflammatory lesions of left lung: Fibrosis lesion,[1]; [6],7.88 ± 0.48
same,Evaluation of injury and inflammatory lesions of left lung: Fibrotic lesion edge,[1]; [6],5.50 ± 0.25
same,Fibrosis area (left pulmonary fibrosis),"[1]; 60 mg/kg/d oral from modeling day, D15, Masson trichrome, mean ± sem, n = 8",77.85 ± 10.90
same,Fibrosis Score 1-3 (%),[1]; [7],75.00 ± 23.90%
same,Fibrosis Score 4-8 (%),[1]; [7],25.00 ± 23.90%
same,Fibrosis score (Ashcraft),[1]; [7],3.15 ± 0.65
same,Volume of left lung,[1]; [7],1.24 ± 0.17 cm^3
same,Weight of left lung,[1]; [7],1.18 ± 0.14 g
same,average score of fibrosis in the entire fibrosis lesion (ashcraft),"[1]; BIBF1120 60 mg/kg/d, compound A 5, 10, 20 mg/kg/d",about 3 points
same,Expression of Type I collagen (%),[2]; [8],18.99 ± 1.19%
same,Expression of α-SMA protein (%),[2]; [8],7.36 ± 0.55%
same,Evaluation of injury and inflammatory lesions of left lung: Fibrosis lesion,[2]; [9],7.00 ± 0.36
same,Evaluation of injury and inflammatory lesions of left lung: Fibrotic lesion edge,[2]; [9],5.31 ± 0.28
same,Fibrosis area (left pulmonary),[2]; [9],73.81 ± 1.14
same,Fibrosis Score 1-3 (%),[2]; [9],88.33 ± 4.01%
same,Fibrosis Score 4-8 (%),[2]; [9],11.67 ± 4.01%
same,Fibrosis score (Ashcraft),[2]; [9],2.55 ± 0.18
same,Volume of left lung,[2]; [9],1.23 ± 0.09 cm^3
same,Weight of left lung,[2]; [9],1.31 ± 0.09 g
same,Inflammatory infiltration area,[3]; 50 mpk oral D5 to D25,4.33 ± 1.39 mm^2
same,Total lung tissue area,[3]; 50 mpk oral D5 to D25,87.02 ± 4.05 mm^2
same,Percentage of inflammatory area (%),"[3]; 50 mpk oral D5 to D25, ###p < 0.001 vs. BLM model group",4.67 ± 1.32^### %
same,Percentage of positive α-SMA (%),"[3]; BIBF1120 50 mpk oral D5 to D25, lung tissue immunohistochemical staining",0.96 ± 0.20%
"CS(=O)(=O)c1ccc(C(=O)Nc2ccc(Cl)c(-c3ccccn3)c2)c(Cl)c1 [GDC0449, vismodegib, reference compound]",damage and inflammatory response of terminal bronchioles within fibrosis lesions and pulmonary small artery compared with model group,"[2]; 14 consecutive days, BIBF1120 100, Compound A 5, 15, 30, GDC0449 50 mg/kg/d, p<0.001",significantly reduced
same,Expression of Type I collagen (%),[2]; [10],19.06 ± 0.70%
same,Expression of α-SMA protein (%),[2]; [10],7.74 ± 0.59%
same,Evaluation of injury and inflammatory lesions of left lung: Fibrosis lesion,[2]; [11],6.38 ± 0.17
same,Evaluation of injury and inflammatory lesions of left lung: Fibrotic lesion edge,[2]; [11],4.80 ± 0.22
same,Fibrosis area (left pulmonary),[2]; [11],67.96 ± 3.70
same,Fibrosis Score 1-3 (%),[2]; [11],95.00 ± 2.67%
same,Fibrosis Score 4-8 (%),[2]; [11],5.00 ± 2.67%
same,Fibrosis score (Ashcraft),[2]; [11],2.16 ± 0.11
same,Weight of left lung,[2]; [11],1.29 ± 0.09 g
same,degree of pulmonary fibrosis (Ashcraft score) compared with model group,"[2]; BIBF1120 100, Compound A 5, 15, 30, GDC0449 50 mg/kg/d, p<0.01",significantly better
same,amount of Type I collagen deposition in the fibrotic lesions compared with model group,"[2]; BIBF1120 100 mpk, Compound A 5 mpk, GDC0449 50 mpk",no significant difference
same,positive rate of α-SMA in fibrosis lesions per unit area compared with model group,"[2]; BIBF1120 100 mpk, GDC0449 50 mpk",no significant difference
same,treatment effect on fibrosis compared with BIBF1120 100 mg/kg/d,"[2]; compound A 5, 15 and 30 mg/kg, GDC0449 50 mg/kg/d, 14 consecutive days",the same as that of BIBF1120
same,"effect on liver injury, hepatic inflammation and fibrosis",[4],attenuating hepatic inflammation and fibrosis
same,efficacy on pulmonary fibrosis,[5],no efficacy
CN(C)c1ccccc1CN1CCCN(Cc2ccccc2N(C)C)C1c1ccncc1 [GANT61],efficacy on pulmonary fibrosis,[5],good therapeutic effect
